How the values were obtained:
Assay in all cases: relative viability (nuclei count vs DMSO), 5 days (fraction); higher = more cells survive
CAL-12T = tested on: CAL-12T
Method in brief: (§1)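 Relative viability equals treated-well nuclei counts divided by vehicle-well nuclei counts. Counts came from 4× images of lung cancer cell lines grown in 1536-well plates for 5 days after pin-tool dosing on the day after seeding. Dosing used one drug alone or a fixed anchor-drug dose plus five library-drug doses (not always all listed) in √10 steps, and values are medians of duplicate plates.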

COR-L 105 = tested on: COR-L 105
Method in brief: as §1

EKVX = tested on: EKVX
Method in brief: as §1

EPLC-272H = tested on: EPLC-272H
Method in brief: as §1

H3255 = tested on: H3255
Method in brief: as §1

HCC-15 = tested on: HCC-15
Method in brief: as §1

HCC-44 = tested on: HCC-44
Method in brief: as §1

HCC-827 = tested on: HCC-827
Method in brief: as §1

LCLC-103H = tested on: LCLC-103H
Method in brief: as §1

NCI-H1437 = tested on: NCI-H1437
Method in brief: as §1

NCI-H1755 = tested on: NCI-H1755
Method in brief: as §1

NCI-H1793 = tested on: NCI-H1793
Method in brief: as §1

NCI-H2009 = tested on: NCI-H2009
Method in brief: as §1

NCI-H322M = tested on: NCI-H322M
Method in brief: as §1

NCI-H441 = tested on: NCI-H441
Method in brief: as §1

NCI-H520 = tested on: NCI-H520
Method in brief: as §1

NCI-H522 = tested on: NCI-H522
Method in brief: as §1

NCI-H596 = tested on: NCI-H596
Method in brief: as §1

NCI-H647 = tested on: NCI-H647
Method in brief: as §1

PC-3 [JPC-3] = tested on: PC-3 [JPC-3]
Method in brief: as §1

SK-LU-1 = tested on: SK-LU-1
Method in brief: as §1

UMC-11 = tested on: UMC-11
Method in brief: as §1

## Cc1cn(-c2cc(NC(=O)c3ccc(C)c(Nc4nccc(-c5cccnc5)n4)c3)cc(C(F)(F)F)c2)cn1 [Nilotinib] + Nc1nc2[nH]cc(CCc3ccc(C(=O)N[C@@H](CCC(=O)O)C(=O)O)cc3)c2c(=O)[nH]1 [Pemetrexed] (partner 0.2 µM)
CAL-12T; first compound 0.001 µM
  relative viability: 0.977
CAL-12T; first compound 0.003162 µM
  relative viability: 1.48
CAL-12T; first compound 0.01 µM
  relative viability: 1.34
CAL-12T; first compound 0.03162 µM
  relative viability: 0.992
CAL-12T; first compound 0.1 µM
  relative viability: 1.22
COR-L 105; first compound 0.001 µM
  relative viability: 0.975
COR-L 105; first compound 0.003162 µM
  relative viability: 1.17
COR-L 105; first compound 0.01 µM
  relative viability: 1.55
COR-L 105; first compound 0.03162 µM
  relative viability: 1.13
COR-L 105; first compound 0.1 µM
  relative viability: 1.15
EKVX; first compound 0.001 µM
  relative viability: 0.33
EKVX; first compound 0.003162 µM
  relative viability: 0.27
EKVX; first compound 0.01 µM
  relative viability: 0.471
EKVX; first compound 0.03162 µM
  relative viability: 0.353
EPLC-272H; first compound 0.001 µM
  relative viability: 0.239
EPLC-272H; first compound 0.003162 µM
  relative viability: 0.324
EPLC-272H; first compound 0.01 µM
  relative viability: 0.195
EPLC-272H; first compound 0.03162 µM
  relative viability: 0.309
EPLC-272H; first compound 0.1 µM
  relative viability: 0.171
H3255; first compound 0.001 µM
  relative viability: 0.528
H3255; first compound 0.003162 µM
  relative viability: 0.671
H3255; first compound 0.01 µM
  relative viability: 0.578
H3255; first compound 0.03162 µM
  relative viability: 0.579
H3255; first compound 0.1 µM
  relative viability: 0.523
HCC-15; first compound 0.001 µM
  relative viability: 0.213
HCC-15; first compound 0.003162 µM
  relative viability: 0.205
HCC-15; first compound 0.01 µM
  relative viability: 0.204
HCC-15; first compound 0.03162 µM
  relative viability: 0.18
HCC-15; first compound 0.1 µM
  relative viability: 0.162
HCC-44; first compound 0.001 µM
  relative viability: 0.662
HCC-44; first compound 0.003162 µM
  relative viability: 0.574
HCC-44; first compound 0.01 µM
  relative viability: 0.613
HCC-44; first compound 0.1 µM
  relative viability: 0.66
HCC-827; first compound 0.001 µM
  relative viability: 0.272
HCC-827; first compound 0.003162 µM
  relative viability: 0.224
HCC-827; first compound 0.03162 µM
  relative viability: 0.217
HCC-827; first compound 0.1 µM
  relative viability: 0.245
LCLC-103H; first compound 0.001 µM
  relative viability: 0.447
LCLC-103H; first compound 0.003162 µM
  relative viability: 0.409
LCLC-103H; first compound 0.01 µM
  relative viability: 0.438
LCLC-103H; first compound 0.03162 µM
  relative viability: 0.467
LCLC-103H; first compound 0.1 µM
  relative viability: 0.351
NCI-H1437; first compound 0.001 µM
  relative viability: 0.28
NCI-H1437; first compound 0.003162 µM
  relative viability: 0.34
NCI-H1437; first compound 0.01 µM
  relative viability: 0.343
NCI-H1437; first compound 0.03162 µM
  relative viability: 0.276
NCI-H1437; first compound 0.1 µM
  relative viability: 0.311
NCI-H1755; first compound 0.001 µM
  relative viability: 0.41
NCI-H1755; first compound 0.003162 µM
  relative viability: 0.383
NCI-H1755; first compound 0.01 µM
  relative viability: 0.328
NCI-H1755; first compound 0.03162 µM
  relative viability: 0.306
NCI-H1755; first compound 0.1 µM
  relative viability: 0.361
NCI-H1793; first compound 0.001 µM
  relative viability: 0.996
NCI-H1793; first compound 0.003162 µM
  relative viability: 0.965
NCI-H1793; first compound 0.01 µM
  relative viability: 1.07
NCI-H1793; first compound 0.03162 µM
  relative viability: 0.903
NCI-H1793; first compound 0.1 µM
  relative viability: 0.359
NCI-H2009; first compound 0.001 µM
  relative viability: 0.926
NCI-H2009; first compound 0.003162 µM
  relative viability: 0.964
NCI-H2009; first compound 0.01 µM
  relative viability: 0.919
NCI-H2009; first compound 0.03162 µM
  relative viability: 1.06
NCI-H2009; first compound 0.1 µM
  relative viability: 0.989
NCI-H322M; first compound 0.001 µM
  relative viability: 0.757
NCI-H322M; first compound 0.003162 µM
  relative viability: 0.774
NCI-H322M; first compound 0.01 µM
  relative viability: 0.576
NCI-H322M; first compound 0.03162 µM
  relative viability: 0.593
NCI-H322M; first compound 0.1 µM
  relative viability: 0.645
NCI-H441; first compound 0.001 µM
  relative viability: 0.261
NCI-H441; first compound 0.003162 µM
  relative viability: 0.26
NCI-H441; first compound 0.01 µM
  relative viability: 0.225
NCI-H441; first compound 0.03162 µM
  relative viability: 0.229
NCI-H441; first compound 0.1 µM
  relative viability: 0.186
NCI-H520; first compound 0.001 µM
  relative viability: 0.591
NCI-H520; first compound 0.003162 µM
  relative viability: 0.674
NCI-H520; first compound 0.01 µM
  relative viability: 0.717
NCI-H520; first compound 0.03162 µM
  relative viability: 0.578
NCI-H520; first compound 0.1 µM
  relative viability: 0.556
NCI-H522; first compound 0.01 µM
  relative viability: 1.21
NCI-H522; first compound 0.03162 µM
  relative viability: 0.949
NCI-H522; first compound 0.1 µM
  relative viability: 0.792
NCI-H596; first compound 0.001 µM
  relative viability: 0.49
NCI-H596; first compound 0.003162 µM
  relative viability: 0.423
NCI-H596; first compound 0.01 µM
  relative viability: 0.491
NCI-H596; first compound 0.03162 µM
  relative viability: 0.513
NCI-H596; first compound 0.1 µM
  relative viability: 0.371
NCI-H647; first compound 0.001 µM
  relative viability: 0.158
NCI-H647; first compound 0.003162 µM
  relative viability: 0.158
NCI-H647; first compound 0.01 µM
  relative viability: 0.118
NCI-H647; first compound 0.03162 µM
  relative viability: 0.138
NCI-H647; first compound 0.1 µM
  relative viability: 0.118
PC-3 [JPC-3]; first compound 0.001 µM
  relative viability: 1.02
PC-3 [JPC-3]; first compound 0.01 µM
  relative viability: 0.889
PC-3 [JPC-3]; first compound 0.03162 µM
  relative viability: 1.05
PC-3 [JPC-3]; first compound 0.1 µM
  relative viability: 0.599
SK-LU-1; first compound 0.001 µM
  relative viability: 0.867
SK-LU-1; first compound 0.003162 µM
  relative viability: 1.09
SK-LU-1; first compound 0.01 µM
  relative viability: 0.949
SK-LU-1; first compound 0.03162 µM
  relative viability: 0.524
SK-LU-1; first compound 0.1 µM
  relative viability: 0.415
UMC-11; first compound 0.001 µM
  relative viability: 0.789
UMC-11; first compound 0.003162 µM
  relative viability: 0.914
UMC-11; first compound 0.01 µM
  relative viability: 0.857
UMC-11; first compound 0.03162 µM
  relative viability: 0.495
UMC-11; first compound 0.1 µM
  relative viability: 0.631

Source: the supplement of paper PMC10307832
